Consider four compounds from patent publication US20060282913A1, “Method of efficiently growing modified morning glory plant” (SKILL/VISION CO., LTD., priority 2003, published 2006).

The structures appear in SMILES notation.

The test system of this experiment is immature embryos of modified morning glory "aosakaikaryuubaseisaisakibotan". Nature of the experiment: Embryoid body induction from cultured immature embryos with different phytohormones. In kind it is cell-based, Ipomoea nil. The settings on record: immature embryos cultured as in Example 1A (MS medium, 60 g/l sucrose, 25° C., 2000 lux; NAA 3 mg/l), phytohormone varied. As to the method:
Immature embryos were obtained from a parent tree of modified morning glory “aosakaikaryuubaseisaisakibotan”. Each individual immature embryo was separately cultured on an MS medium containing 3 mg/l of NAA and 60 g/l of sucrose at 25° C. under 2000 lux, to thereby obtain an embryoid body from the immature embryo. Each embryoid body obtained from different immature embryo was separately cultured as a discrete strain. Subculturing was repeated using the same medium at an interval of 4 weeks.
In substantially the same manner as in Example 1A, immature embryos were cultured except that phytohormone other than NAA, such as 4-fluorophenoxyacetic acid, 2,4-dichlorophenoxyacetic acid and picloram were used. As is apparent from a result shown in Table 4, in the case of phytohormone other than NAA, no embryoid bodies were produced, and thus mass proliferation was not attained.
For `O=C(O)Cc1cccc2ccccc12` [NAA], the “Number of embryoid bodies formed per immature embryo” value (“Number … per immature embryo” below) is reported as 10.
`Nc1c(Cl)c(Cl)nc(C(=O)O)c1Cl` [Picloram, picloram]: the “Number … per immature embryo” value is on record as 0.
On to `O=C(O)COc1ccc(Cl)cc1Cl` [2,4-dichlorophenoxyacetic acid], for which the “Number … per immature embryo” value was determined as 0.
Turning to `O=C(O)COc1ccc(F)cc1` [4-fluorophenoxyacetic acid], the “Number … per immature embryo” value is listed as 0.
